Data taken from patent US20250026747A1, “COLIBACTIN DERIVATIVES AND METHODS OF TREATING, AMELIORATING, AND/OR PREVENTING CANCER” (priority 2021, published 2025).

Test system: HeLa cells
Assay: Cell cycle analysis (DNA content histograms) in HeLa cells
Type: cell-based, human
Settings: >11 μM
Protocol: FIGS. 7A-7B evaluates the Colibactin 742 (4) and its linear precursor 9 recapitulate the clb phenotype. […] HeLa cells were treated with the linear precursor 9 (1-100 μM), colibactin 742 (4) (1-100 μM) or MMC (150 nM) for 4 h. The cells were then washed and incubated for 20 h before immunofluorescence imaging. Cells were considered positive when >5 FANCD2 or γH2AX foci formed. Means and standard deviations of results from at least three independent experiments are shown. FIG. 7B depicts the DNA content histograms upon treatment with colibactin 742 (4, 11 μM) or 9 (11 μM) quantification of the sub-population of the histograms.
DNA content histograms and quantification of the sub-population of the histograms.
It has also been reported that clb^+ bacteria induce cell cycle arrest at the G2/M phase and eventual mitotic catastrophe.

C[C@H]1CCC(CC(=O)NC2(C(=O)CC(=O)NCC(=O)c3csc(CCc4csc(CNC(=O)CC(=O)C5(NC(=O)CC6=N[C@@H](C)CC6)CC5)n4)n3)CC2)=N1 [compound 9]
cell cycle arrest at G2/M: accumulation of cells in G2
